Experimental data reported in patent publication US20260042731A1, “(2,4-DICHLOROPHENOXY)ACETIC ACID ANALOGS” (CORTEVA AGRISCIENCE LLC, priority 2022, published 2026).
Read-outs that look alike come from different tables or passages of the source.

Legend:
[1] = system: Ambrosia artemisiifolia (AMBEL), common ragweed; assay: Postemergence herbicide evaluation, growth of Ambrosia artemisiifolia (AMBEL); assay type: in vivo; details: Ambrosia artemisiifolia, post-emergence, percent reduction in plant size relative to untreated control, read-out: AVE. AMBEL; for pest or weed control at 280 g/ha: 280 g ae/ha; for pest or weed control at 560 g/ha: 560 g ae/ha
[2] = Volatility of compounds measured by thermogravimetric analysis (TGA); assay type: physicochemical
[3] = system: weeds (ABUTH, AMATA, AMBEL, CHEAL, ERICA); assay: Postemergence herbicide evaluation, overall average % weed control across ABUTH, AMATA, AMBEL, CHEAL, ERICA; assay type: in vivo; details: post-emergence, average over the five weeds, read-out: Overall Ave % Weed Control; for pest or weed control at 280 g/ha: 280 g ae/ha; for pest or weed control at 560 g/ha: 560 g ae/ha
[4] = system: Chenopodium album (CHEAL), common lambsquarters; assay: Postemergence herbicide evaluation, growth of Chenopodium album (CHEAL); assay type: in vivo; details: Chenopodium album, post-emergence, percent reduction in plant size relative to untreated control, read-out: Ave. CHEAL; for pest or weed control at 280 g/ha: 280 g ae/ha; for pest or weed control at 560 g/ha: 560 g ae/ha
[5] = system: glyphosate resistant Conyza canadensis (L.) (ERICA), horseweed; assay: Postemergence herbicide evaluation, growth of Conyza canadensis (ERICA); assay type: in vivo; details: Erigeron canadensis, post-emergence, percent reduction in plant size relative to untreated control, read-out: Ave. ERICA; for pest or weed control at 280 g/ha: 280 g ae/ha; for pest or weed control at 560 g/ha: 560 g ae/ha
[6] = system: Abutilon theophrasti (ABUTH), velvetleaf; assay: Postemergence herbicide evaluation, growth of Abutilon theophrasti (ABUTH); assay type: in vivo; details: Abutilon theophrasti, post-emergence, percent reduction in plant size relative to untreated control, read-out: AVE. ABUTH; for pest or weed control at 280 g/ha: 280 g ae/ha; for pest or weed control at 560 g/ha: 560 g ae/ha
[7] = system: Amaranthus rudis (AMATA), tall water hemp; assay: Postemergence herbicide evaluation, growth of Amaranthus rudis (AMATA); assay type: in vivo; details: Amaranthus tuberculatus, post-emergence, percent reduction in plant size relative to untreated control, read-out: Ave. AMATA; for pest or weed control at 280 g/ha: 280 g ae/ha; for pest or weed control at 560 g/ha: 560 g ae/ha

SMILES | pest or weed control at 280 g/ha ([1]; 168 h, 7 DAA) [%] | pest or weed control at 560 g/ha ([1]; 168 h, 7 DAA) [%] | pest or weed control at 280 g/ha ([1]; 336 h, 14 DAA) [%] | pest or weed control at 560 g/ha ([1]; 336 h, 14 DAA) [%] | pest or weed control at 280 g/ha ([1]; 504 h, 21 DAA) [%] | pest or weed control at 560 g/ha ([1]; 504 h, 21 DAA) [%] | TGA Data (rate of weight loss, volatility) [2] [µg/min] | pest or weed control at 280 g/ha ([3]; 168 h, 7 DAA) [%] | pest or weed control at 560 g/ha ([3]; 168 h, 7 DAA) [%] | pest or weed control at 280 g/ha ([3]; 336 h, 14 DAA) [%] | pest or weed control at 560 g/ha ([3]; 336 h, 14 DAA) [%] | pest or weed control at 280 g/ha ([3]; 504 h, 21 DAA) [%] | pest or weed control at 560 g/ha ([3]; 504 h, 21 DAA) [%] | pest or weed control at 280 g/ha ([4]; 168 h, 7 DAA) [%] | pest or weed control at 560 g/ha ([4]; 168 h, 7 DAA) [%] | pest or weed control at 280 g/ha ([4]; 336 h, 14 DAA) [%] | pest or weed control at 560 g/ha ([4]; 336 h, 14 DAA) [%] | pest or weed control at 280 g/ha ([4]; 504 h, 21 DAA) [%] | pest or weed control at 560 g/ha ([4]; 504 h, 21 DAA) [%] | pest or weed control at 280 g/ha ([5]; 168 h, 7 DAA) [%] | also measured
O=C(COc1ccc(Cl)cc1Cl)ONC(=O)c1ccc(C(=O)NOC(=O)COc2ccc(Cl)cc2Cl)cc1 [Compound B4] | 58 | 65 | 88 | 84 | 95 | 87 | 0.3 | 65 | 69 | 78 | 79 | 83 | 81 | 63 | 63 | 70 | 68 | 75 | 65 | 68 | pest or weed control at 560 g/ha ([5]; 168 h, 7 DAA): 68%; pest or weed control at 280 g/ha ([5]; 336 h, 14 DAA): 85%; pest or weed control at 560 g/ha ([5]; 336 h, 14 DAA): 95%; pest or weed control at 280 g/ha ([5]; 504 h, 21 DAA): 99%; pest or weed control at 560 g/ha ([5]; 504 h, 21 DAA): 100%; pest or weed control at 280 g/ha ([6]; 168 h, 7 DAA): 70%; pest or weed control at 560 g/ha ([6]; 168 h, 7 DAA): 80%; pest or weed control at 280 g/ha ([6]; 336 h, 14 DAA): 78%; pest or weed control at 560 g/ha ([6]; 336 h, 14 DAA): 73%; pest or weed control at 280 g/ha ([6]; 504 h, 21 DAA): 83%; pest or weed control at 560 g/ha ([6]; 504 h, 21 DAA): 84%; pest or weed control at 280 g/ha ([7]; 168 h, 7 DAA): 68%; pest or weed control at 560 g/ha ([7]; 168 h, 7 DAA): 70%; pest or weed control at 280 g/ha ([7]; 336 h, 14 DAA): 68%; pest or weed control at 560 g/ha ([7]; 336 h, 14 DAA): 78%; pest or weed control at 280 g/ha ([7]; 504 h, 21 DAA): 65%; pest or weed control at 560 g/ha ([7]; 504 h, 21 DAA): 68%
N/C(=N\OC(=O)COc1ccc(Cl)cc1Cl)c1ccc(/C(N)=N/OC(=O)COc2ccc(Cl)cc2Cl)cc1 [Compound B5, (1,4)—N°1, N°4-Bis(2-(2,4-dichlorophenoxy)acetoxy)terephthalimidamide] | 18 | 15 | 8 | 15 | 5 | 18 | 0.1 | 13 | 16 | 14 | 17 | 17 | 18 | 15 | 13 | 20 | 15 | 40 | 13 | 5 | pest or weed control at 560 g/ha ([5]; 168 h, 7 DAA): 25%; pest or weed control at 280 g/ha ([5]; 336 h, 14 DAA): 30%; pest or weed control at 560 g/ha ([5]; 336 h, 14 DAA): 35%; pest or weed control at 280 g/ha ([5]; 504 h, 21 DAA): 15%; pest or weed control at 560 g/ha ([5]; 504 h, 21 DAA): 28%; pest or weed control at 280 g/ha ([6]; 168 h, 7 DAA): 0%; pest or weed control at 560 g/ha ([6]; 168 h, 7 DAA): 3%; pest or weed control at 280 g/ha ([6]; 336 h, 14 DAA): 10%; pest or weed control at 560 g/ha ([6]; 336 h, 14 DAA): 3%; pest or weed control at 280 g/ha ([6]; 504 h, 21 DAA): 10%; pest or weed control at 560 g/ha ([6]; 504 h, 21 DAA): 0%; pest or weed control at 280 g/ha ([7]; 168 h, 7 DAA): 25%; pest or weed control at 560 g/ha ([7]; 168 h, 7 DAA): 25%; pest or weed control at 280 g/ha ([7]; 336 h, 14 DAA): 0%; pest or weed control at 560 g/ha ([7]; 336 h, 14 DAA): 18%; pest or weed control at 280 g/ha ([7]; 504 h, 21 DAA): 15%; pest or weed control at 560 g/ha ([7]; 504 h, 21 DAA): 33%
